Assay results published in PubChem BioAssay AID1745844 (Carcinogenic Potency Database (CPDB), 2022).
Where “and” joins values, the source holds several entries; their conditions need not be identical. Equal entries are not always repeated. Calls of active or inactive are those of the source. No rule for the calls is given here.

Test system: rodent lifetime carcinogenesis bioassay, tumor incidence TD50
Assay: carcinogenic potency in animals, long-term in vivo studies, CPDB compilation (AID 1745844)
[1] = mouse, strain Charles River CD1, females, in drinking water, site: all sites, lesion: all vascular tumors, dosed 52 weeks, study length 52 weeks
[2] = mouse, strain Charles River CD1, males, in drinking water, site: all sites, lesion: all vascular tumors, dosed 52 weeks, study length 52 weeks
[3] = mouse, strain Charles River CD1, males, in drinking water, site: liver, lesion: hepatocellular carcinoma, dosed 52 weeks, study length 52 weeks
[4] = mouse, strain Charles River CD1, males, in drinking water, site: liver, lesion: several types, types named in the paper, dosed 52 weeks, study length 52 weeks
[5] = mouse, strain Charles River CD1, males, in drinking water, site: lung, lesion: alveolar/bronchiolar adenoma, dosed 52 weeks, study length 52 weeks

CN(C)N
TD50 (hamster, strain Syrian Golden, females, in drinking water, site: blood vessels, lesion: several types, types named in the paper, dosed 79 weeks, study length 79 weeks): 620 mg/kg/day | TD50 (hamster, strain Syrian Golden, females, in drinking water, site: cecum, lesion: several types, types named in the paper, dosed 79 weeks, study length 79 weeks): 104 mg/kg/day | TD50 (hamster, strain Syrian Golden, females, in drinking water, site: liver, lesion: several types, types named in the paper, dosed 79 weeks, study length 79 weeks): 620 mg/kg/day | TD50 (hamster, strain Syrian Golden, males, in drinking water, site: blood vessels, lesion: several types, types named in the paper, dosed 91 weeks, study length 91 weeks): 183 mg/kg/day | TD50 (hamster, strain Syrian Golden, males, in drinking water, site: cecum, lesion: adenocarcinoma, dosed 91 weeks, study length 91 weeks): 322 mg/kg/day | TD50 (hamster, strain Syrian Golden, males, in drinking water, site: cecum, lesion: polypoid adenoma, dosed 91 weeks, study length 91 weeks): 372 mg/kg/day | TD50 (hamster, strain Syrian Golden, males, in drinking water, site: cecum, lesion: several types, types named in the paper, dosed 91 weeks, study length 91 weeks): 155 mg/kg/day | TD50 (hamster, strain Syrian Golden, males, in drinking water, site: liver, lesion: angioma, dosed 91 weeks, study length 91 weeks): 975 mg/kg/day | TD50 (hamster, strain Syrian Golden, males, in drinking water, site: liver, lesion: angiosarcoma, dosed 91 weeks, study length 91 weeks): 242 mg/kg/day | TD50 (hamster, strain Syrian Golden, males, in drinking water, site: liver, lesion: several types, types named in the paper, dosed 91 weeks, study length 91 weeks): 183 mg/kg/day | TD50 [1]: 26 mg/kg/day | carcinogen call [1]: negative (inactive) | TD50 (mouse, strain Charles River CD1, females, in drinking water, site: all sites, lesion: all vascular tumors, dosed 104 weeks, study length 104 weeks): 11.1 mg/kg/day | TD50 (mouse, strain Charles River CD1, females, in drinking water, site: all sites, lesion: hemangioma, dosed 52 weeks, study length 52 weeks): 39.7 mg/kg/day | TD50 (mouse, strain Charles River CD1, females, in drinking water, site: all sites, lesion: hemangiosarcoma, dosed 52 weeks, study length 52 weeks): 80.8 mg/kg/day | TD50 (mouse, strain Charles River CD1, females, in drinking water, site: liver, lesion: all vascular tumors, dosed 52 weeks, study length 52 weeks): 26 mg/kg/day | TD50 (mouse, strain Charles River CD1, females, in drinking water, site: liver, lesion: hemangioma, dosed 52 weeks, study length 52 weeks): 39.7 mg/kg/day | TD50 (mouse, strain Charles River CD1, females, in drinking water, site: liver, lesion: hemangiosarcoma, dosed 52 weeks, study length 52 weeks): 80.8 mg/kg/day | TD50 (mouse, strain Charles River CD1, females, in drinking water, site: liver, lesion: hepatocellular adenoma, dosed 104 weeks, study length 104 weeks): 98.7 mg/kg/day and 63.6 mg/kg/day | TD50 (mouse, strain Charles River CD1, females, in drinking water, site: liver, lesion: hepatocellular carcinoma, dosed 104 weeks, study length 104 weeks): 340 mg/kg/day | carcinogen call (mouse, strain Charles River CD1, females, in drinking water, site: liver, lesion: one or several types, types not named, dosed 52 weeks, study length 52 weeks): negative (inactive) | TD50 (mouse, strain Charles River CD1, females, in drinking water, site: liver, lesion: several types, types named in the paper, dosed 104 weeks, study length 104 weeks): 74.7 mg/kg/day | TD50 (mouse, strain Charles River CD1, females, in drinking water, site: lung, lesion: alveolar/bronchiolar carcinoma, dosed 52 weeks, study length 52 weeks): 81.5 mg/kg/day | TD50 (mouse, strain Charles River CD1, females, in drinking water, site: lung, lesion: several types, types named in the paper, dosed 52 weeks, study length 52 weeks): 3.68 mg/kg/day | TD50 [2]: 12.6 mg/kg/day | carcinogen call [2]: negative (inactive) | TD50 (mouse, strain Charles River CD1, males, in drinking water, site: all sites, lesion: all vascular tumors, dosed 104 weeks, study length 104 weeks): 6.13 mg/kg/day | TD50 (mouse, strain Charles River CD1, males, in drinking water, site: all sites, lesion: hemangioma, dosed 52 weeks, study length 52 weeks): 33.4 mg/kg/day | TD50 (mouse, strain Charles River CD1, males, in drinking water, site: all sites, lesion: hemangioma, dosed 104 weeks, study length 104 weeks): 339 mg/kg/day | TD50 (mouse, strain Charles River CD1, males, in drinking water, site: all sites, lesion: hemangiosarcoma, dosed 52 weeks, study length 52 weeks): 21.7 mg/kg/day | TD50 (mouse, strain Charles River CD1, males, in drinking water, site: liver, lesion: all vascular tumors, dosed 52 weeks, study length 52 weeks): 12.6 mg/kg/day | TD50 (mouse, strain Charles River CD1, males, in drinking water, site: liver, lesion: all vascular tumors, dosed 104 weeks, study length 104 weeks): 6.47 mg/kg/day | TD50 (mouse, strain Charles River CD1, males, in drinking water, site: liver, lesion: hemangioma, dosed 52 weeks, study length 52 weeks): 33.4 mg/kg/day | TD50 (mouse, strain Charles River CD1, males, in drinking water, site: liver, lesion: hemangioma, dosed 104 weeks, study length 104 weeks): 339 mg/kg/day | TD50 (mouse, strain Charles River CD1, males, in drinking water, site: liver, lesion: hemangiosarcoma, dosed 52 weeks, study length 52 weeks): 21.7 mg/kg/day | TD50 (mouse, strain Charles River CD1, males, in drinking water, site: liver, lesion: hepatocellular adenoma, dosed 52 weeks, study length 52 weeks): 26.7 mg/kg/day (inactive) | TD50 [3]: 10.8 mg/kg/day | carcinogen call [3]: negative (inactive) | TD50 (mouse, strain Charles River CD1, males, in drinking water, site: liver, lesion: hepatocellular carcinoma, dosed 104 weeks, study length 104 weeks): 11.9 mg/kg/day and 33.4 mg/kg/day | TD50 [4]: 6.28e+06 mg/kg/day | carcinogen call [4]: negative (inactive) | TD50 [5]: 5.18 mg/kg/day | carcinogen call [5]: negative (inactive) | TD50 (mouse, strain Charles River CD1, males, in drinking water, site: lung, lesion: alveolar/bronchiolar carcinoma, dosed 52 weeks, study length 52 weeks): 67.4 mg/kg/day | TD50 (mouse, strain Charles River CD1, males, in drinking water, site: lung, lesion: alveolar/bronchiolar carcinoma, dosed 104 weeks, study length 104 weeks): 89 mg/kg/day and 33.4 mg/kg/day | TD50 (mouse, strain Charles River CD1, males, in drinking water, site: lung, lesion: several types, types named in the paper, dosed 52 weeks, study length 52 weeks): 4.33 mg/kg/day | TD50 (mouse, strain Charles River CD1, males, in drinking water, site: lung, lesion: several types, types named in the paper, dosed 104 weeks, study length 104 weeks): 39.6 mg/kg/day and 26.4 mg/kg/day | TD50 (mouse, strain Swiss albino, females, in drinking water, site: blood vessels, lesion: angiosarcoma, dosed 72 weeks, study length 72 weeks): 3.57 mg/kg/day | TD50 (mouse, strain Swiss albino, females, in drinking water, site: blood vessels, lesion: several types, types named in the paper, dosed 72 weeks, study length 72 weeks): 3.65 mg/kg/day | TD50 (mouse, strain Swiss albino, females, in drinking water, site: kidney, lesion: adenoma, dosed 72 weeks, study length 72 weeks): 148 mg/kg/day | TD50 (mouse, strain Swiss albino, females, in drinking water, site: lung, lesion: adenocarcinoma, dosed 72 weeks, study length 72 weeks): 51.6 mg/kg/day | TD50 (mouse, strain Swiss albino, females, in drinking water, site: lung, lesion: adenoma, dosed 72 weeks, study length 72 weeks): 5.58 mg/kg/day | TD50 (mouse, strain Swiss albino, females, in drinking water, site: lung, lesion: several types, types named in the paper, dosed 72 weeks, study length 72 weeks): 5.69 mg/kg/day | TD50 (mouse, strain Swiss albino, males, in drinking water, site: blood vessels, lesion: angiosarcoma, dosed 62 weeks, study length 62 weeks): 2.09 mg/kg/day | TD50 (mouse, strain Swiss albino, males, in drinking water, site: blood vessels, lesion: several types, types named in the paper, dosed 62 weeks, study length 62 weeks): 2.11 mg/kg/day | TD50 (mouse, strain Swiss albino, males, in drinking water, site: kidney, lesion: adenoma, dosed 62 weeks, study length 62 weeks): 19.5 mg/kg/day | TD50 (mouse, strain Swiss albino, males, in drinking water, site: liver, lesion: hepatoma, dosed 62 weeks, study length 62 weeks): 30.4 mg/kg/day | TD50 (mouse, strain Swiss albino, males, in drinking water, site: lung, lesion: adenocarcinoma, dosed 62 weeks, study length 62 weeks): 46.6 mg/kg/day | TD50 (mouse, strain Swiss albino, males, in drinking water, site: lung, lesion: adenoma, dosed 62 weeks, study length 62 weeks): 2.62 mg/kg/day | TD50 (mouse, strain Swiss albino, males, in drinking water, site: lung, lesion: several types, types named in the paper, dosed 62 weeks, study length 62 weeks): 2.62 mg/kg/day | TD50 (mouse, strain Swiss, females, by gavage, site: lung, lesion: one or several types, types not named, dosed 40 weeks, study length 55 weeks): 16 mg/kg/day | carcinogen call (rat, strain Fischer 344, females, in drinking water, site: liver, lesion: hemangioma, dosed 52 weeks, study length 52 weeks): negative (inactive) | TD50 (rat, strain Fischer 344, females, in drinking water, site: liver, lesion: hepatocellular adenoma, dosed 104 weeks, study length 104 weeks): 184 mg/kg/day (inactive) | TD50 (rat, strain Fischer 344, females, in drinking water, site: liver, lesion: hepatocellular carcinoma, dosed 104 weeks, study length 104 weeks): 40.7 mg/kg/day (inactive) | TD50 (rat, strain Fischer 344, females, in drinking water, site: liver, lesion: several types, types named in the paper, dosed 104 weeks, study length 104 weeks): 30.9 mg/kg/day (inactive) | TD50 (rat, strain Fischer 344, females, in drinking water, site: pituitary gland, lesion: adenoma, dosed 104 weeks, study length 104 weeks): 14.8 mg/kg/day (inactive) | TD50 (rat, strain Fischer 344, males, in drinking water, site: liver, lesion: hepatocellular adenoma, dosed 104 weeks, study length 104 weeks): 205 mg/kg/day (inactive) | TD50 (rat, strain Fischer 344, males, in drinking water, site: liver, lesion: hepatocellular carcinoma, dosed 104 weeks, study length 104 weeks): 650 mg/kg/day (inactive) | carcinogen call (rat, strain Fischer 344, males, in drinking water, site: liver, lesion: one or several types, types not named, dosed 52 weeks, study length 52 weeks): negative (inactive) | TD50 (rat, strain Fischer 344, males, in drinking water, site: liver, lesion: several types, types named in the paper, dosed 104 weeks, study length 104 weeks): 155 mg/kg/day (inactive)

Nc1ccc(N(CCO)CCO)cc1
TD50 (rat, strain F344/DuCrj, females, in feed, site: liver, lesion: hepatocellular adenoma, dosed 104 weeks, study length 104 weeks): 7310 mg/kg/day (inactive) | carcinogen call (rat, strain F344/DuCrj, males, in feed, site: liver, lesion: hepatocellular adenoma, dosed 104 weeks, study length 104 weeks): negative (inactive) | carcinogen call (rat, strain F344/DuCrj, males, in feed, site: liver, lesion: hepatocellular carcinoma, dosed 104 weeks, study length 104 weeks): negative (inactive)
